Results published in patent US10960004B2, “Method for treating cancer patients with severe renal impairment” (TAIHO PHARMACEUTICAL CO., LTD., priority 2016, dated 2021).
Like-named read-outs stand apart in the source and are kept apart here.

Experiment: Pharmacokinetics of FTD and TPI in plasma of solid cancer patients given FTD/TPI combination drug, by renal function cohort
Format: in vivo, human
Details: for CL/F / Cmax / half-life / AUC(0-t): 35 mg/m^2 per once as FTD, oral, twice a day, plasma, mean; for Cmax / half-life / AUC(0-t): human, po; for AUC(0-t): read-out: AUC0-12; for AUC0-12 higher as compared to patients with normal renal function: after repeated administrations, 35 mg/m^2
Experimental: Pharmacokinetic of FTD was studied in patients with solid cancer including colorectal cancer, when performing a treatment of repeating an administration schedule of orally administering an FTD/TPI combination drug (mixture of FTD and TPI in a molar ratio of 1:0.5) in 35 mg/m^2 per once (as FTD, the same applies hereinafter) for 5 consecutive days twice a day, followed by rest for 2 days twice, followed by rest for 14 days, and repeating this procedure as one cycle. […] Blood collection was performed after administration of the FTD/TPI combination drug on Day 1 and Day 12, at predose and at 0.5, 1, 2, 4, 6, 8, 10, 12 hours after administration, and FTD and TPI concentrations in plasma were measured. Pharmacokinetic parameters of FTD and TPI were calculated using the resulting concentrations in the plasma, and the results were shown in Table 1.

[1] = Day 1, Cohort 0: normal renal function
[2] = Day 1, Cohort 1: mild renal impairment (CLcr 60 to 89 mL/min)
[3] = Day 1, Cohort 2: moderate renal impairment (CLcr 30 to 59 mL/min)
[4] = Day 12, Cohort 0: normal renal function
[5] = Day 12, Cohort 1: mild renal impairment (CLcr 60 to 89 mL/min)
[6] = Day 12, Cohort 2: moderate renal impairment (CLcr 30 to 59 mL/min)
[7] = 35 mg/m2, Day 1, Cohort 0: normal renal function
[8] = 35 mg/m2, Day 1, Cohort 1: mild renal impairment (CLcr 60 to 89 mL/min)
[9] = 35 mg/m2, Day 1, Cohort 2: moderate renal impairment (CLcr 30 to 59 mL/min)
[10] = 35 mg/m2, Day 12, Cohort 0: normal renal function
[11] = 35 mg/m2, Day 12, Cohort 1: mild renal impairment (CLcr 60 to 89 mL/min)
[12] = 35 mg/m2, Day 12, Cohort 2: moderate renal impairment (CLcr 30 to 59 mL/min)

Compound	CL/F [1] [L/h]	CL/F [2] [L/h]	CL/F [3] [L/h]	CL/F [4] [L/h]	CL/F [5] [L/h]	CL/F [6] [L/h]	Cmax [7] [ng/mL]	half-life [7] [h]	AUC(0-t) [7] [ng·h/mL]	Cmax [8] [ng/mL]	half-life [8] [h]	AUC(0-t) [8] [ng·h/mL]	Cmax [9] [ng/mL]	half-life [9] [h]	AUC(0-t) [9] [ng·h/mL]	Cmax [10] [ng/mL]	half-life [10] [h]	AUC(0-t) [10] [ng·h/mL]	Cmax [11] [ng/mL]	half-life [11] [h]	other results
O=c1[nH]c(=O)n([C@H]2C[C@H](O)[C@@H](CO)O2)cc1C(F)(F)F [FTD, α,α,α-trifluorothymidine]	8.72	10.08	9.17	3.29	4.1	2.1	2880	1.26	7870	3160	1.79	7290	2760	1.9	8140	5240	2.09	20100	4670	2.4	AUC(0-t) [11]: 23400 ng·h/mL; Cmax [12]: 6010 ng/mL; half-life [12]: 3.22 h; AUC(0-t) [12]: 30400 ng·h/mL; AUC0-12 higher as compared to patients with normal renal function (patients with mild renal impairment (Cohort 1)): about 16%; AUC0-12 higher as compared to patients with normal renal function (patients with moderate renal impairment (Cohort 2)): about 51%
Cl.N=C1CCCN1Cc1[nH]c(=O)[nH]c(=O)c1Cl [TPI, 5-chloro-6-[(2-iminopyrrolidine-1-yl)methyl]pyrimidine-2,4(1H,3H)-dione hydrochloride]	148.5	105.1	64.8	128.3	83.1	62	46.5	2.04	234	93.9	2.33	380	100	2.42	494	48.8	2.61	247	67.8	2.54	AUC(0-t) [11]: 383 ng·h/mL; Cmax [12]: 112 ng/mL; half-life [12]: 2.63 h; AUC(0-t) [12]: 602 ng·h/mL
